According to patent publication US11712443B2, “17α-monoesters and 17α,21-diesters of cortexolone for use in the treatment of tumors” (COSMO TECHNOLOGIES LTD., priority 2014, dated 2023):
Where two headings read alike, the source gives them in different places.

Columns and labels:
Panc1 = experiment: ATP-dependent proliferation/viability assay (Cell Titer Glo), 3 days; settings: for TI on Resting PBMC: IC50 resting PBMC / IC50 Panc1; for TI on Stimulated PBMC: IC50 stimulated PBMC / IC50 Panc1
[1] = tested on: MiaPaca-2 pancreatic tumor xenograft; experiment: Human pancreatic tumor xenograft in nude mice, subcutaneous treatment; type: in vivo
Protocol: The test was carried out comparing the anti-tumor activity of cortexolone 17α-benzoate at two different dosages (8.0 mg/kg, corresponding approximately at 230 μM, and 40 mg/kg, corresponding approximately at 1150 μM), versus the vehicle (i.e. 0.4% (v/v) tween 80 and 0.5% (w/v) carboxymethylcellulose in normal saline) and versus the comparator Cyproterone Acetate at two different dosages (7.4 mg/kg and 37 mg/kg).
1×10^6 MiaPaca-2 cells suspended in matrigel were subcutaneously injected into 6 week old athymic nude mice.
The treatment with the tested compounds, with the vehicle and with the comparative compound, was initiated after the tumor volume has reached 50 mm3 after transplantation. All compounds were injected 100 μL/mouse subcutaneously of low dose solution (approximately 230 μM) or 100 μL/mouse of high dose solution (approximately 1150 μM) of cortexolone 17α-benzoate, vehicle and cyproterone acetate, respectively. Compounds and controls were administered subcutaneously daily for 28 days.
Tumors were measured every 4 days with a digital caliper.
The results are plotted in FIG. 1 as average change in tumor volume relative to the start of treatment. Tumor volume was calculated according to the formula 0.5236(r1)^2(r2) where r1<r2.
The test was carried out comparing the anti-tumor activity of cortexolone 17α-valerate-21-propionate (CB-03-10) at two different dosages (approximately 8.6 mg/kg and 43 mg/kg) versus the vehicle (i.e. 0.4% (v/v) tween 80 and 0.5% (w/v) carboxymethylcellulose in normal saline) and versus the comparator Cyproterone Acetate at two different dosages (7.4 mg/kg and 37 mg/kg).
The treatment with the tested compound, with the vehicle and with the comparative compound was initiated after the tumor has reached a volume of 50 mm3 after implantation, injecting subcutaneously 100 μL/mouse of low dose solution (approximately 230 μM) or 100 μL/mouse of high dose solution (approximately 1150 μM) of cortexolone 17α-valerate-21-propionate (CB-03-10), vehicle and cyproterone acetate, respectively. Compounds and controls were administered subcutaneously daily for 28 days.
The results are plotted in FIG. 2 as average change in tumor volume relative to the start of treatment. Tumor volume was calculated according to the formula 0.5236(r1)^2(r2) where r1<r2.
CPA a well-known anti-androgen was used as control. Briefly 1×10^6 MiaPaca2 cells suspended in matrigel were subcutaneously (SC) injected into 6 week old male athymic nude mice. Tumors were measured every 4 days with a digital caliper. Tumor volume was calculated according to the formula: 0.5236(r1)2(r2) where r1<r2. Treatment with CB-03-10 and controls compounds was initiated after the tumor had reached 50 mm3. Compounds diluted in DMSO/2-hydroxypropyl b-cyclodextrin (vehicle) were injected subcutaneously (SC) daily (100 μL/mouse) at the concentration of 40 mg/Kg daily for 28 consecutive days.

LNCaP = experiment: ATP-dependent proliferation/viability assay (Cell Titer Glo), 3 days; settings: LNCaP
Protocol: (§1) The experiment was performed to test and to define the antitumor activity in vitro of cortexolone 17α-benzoate on LNCaP (AR+) and PC3 (AR^−), representative of Prostatic cancer cell lines with Androgen Receptor (AR) positive or negative expression, respectively. The experimental method consisted of: • 1. […] After 24 hours, 10 nM DHT (dihydrotestosterone) with or without anti-androgen compounds, or DMSO vehicle (negative control) was added to the cultures. • 3.
as §1, with “define” for “define the”, “17α-valerate-21-propionate (CB-03-10)” for “17α-benzoate”, “AR” for “Androgen Receptor (AR)”

PC3 = experiment: as above; settings: PC3
Protocol: as §1
as §1, with “define” for “define the”, “17α-valerate-21-propionate (CB-03-10)” for “17α-benzoate”, “AR” for “Androgen Receptor (AR)”

HT29 [2] = experiment: In vitro proliferation, larger cancer cell line panel; settings: HT29
stimulated PBMC = experiment: IC50 on stimulated PBMC (actively dividing cells)
Protocol: (§2) The IC^50 in PBMC were tested in 2 different activation status:
stimulated—actively dividing cells
(§3) IC50 of the compounds was determined on fresh cells isolated from human blood (PBMC). The compounds toxicity was determined as follow: Therapeutic Index=Safety/Potency=IC50 stimulated PBMC_/IC50 cancer cell

MCF7 = experiment: In vitro proliferation / cytotoxic assay on breast cancer cells (cell titer glo); settings: MCF7
Protocol: For the cytotoxic assay: cells seeded in 96 well flat bottom culture plates in media containing charcoal stripped serum. After 24 hours test compounds were added to the cells. DMSO was used as the vehicle negative control and RU486 as the positive control. After 72 hours incubation cell were harvested, lysed and viability determined using the cell titer glow assay for viability.

resting PBMC = experiment: IC50 on resting PBMC (quiescent, non-dividing cells); type: cell-based, human
Protocol: The ratio from IC50 of the compounds on peripheral blood mononuclear cells (PBMC) and the IC50 on cancer cell lines constitute the Therapeutic Index and show what is the safer compound to be tested.
as §2
resting—quiescent, non-dividing cells
as §3

MiaPaca2 = experiment: ATP-dependent proliferation/viability assay (Cell Titer Glo), 3 days; settings: for TI on Resting PBMC: IC50 resting PBMC / IC50 MiaPaca2; for TI on Stimulated PBMC: IC50 stimulated PBMC / IC50 MiaPaca2
BxPC3 = experiment: In vitro proliferation, larger cancer cell line panel
HT29 [3] = experiment: MTT colorimetric assay, 72 h; type: cell-based; settings: for Inhibition (%) on HT29: 72 h, MTT; for Therapeutic Index (TI), Resting PBMC: IC50 resting PBMC / IC50 HT29; for Therapeutic Index (TI), Stimulated PBMC: IC50 stimulated PBMC / IC50 HT29
Protocol: The experiment was performed to test and define anticancer activity in vitro of Cortexolone 17α-benzoate and cortexolone 17α-valerate-21-propionate on cell lines representatives of epithelial intestinal tumors, namely HT29. The experiment method consisted in: • 1. Monolayer HT-29 cells were plated in: 96-wells plates at the density of 2×10^4 cells/mL. The cells plated were kept at 37° C. in 5% CO2 and left to attach for 24 h. • 2. […] After 72 h of treatment, the MTT colorimetric assay was performed.

[4] = Experiment 1, 0 = higher toxicity in PBMC

`C[C@]12CCC(=O)C=C1CC[C@@H]1[C@@H]2CC[C@@]2(C)[C@H]1CC[C@]2(OC(=O)c1ccccc1)C(=O)CO` [CB-03-06, cortexolone 17α-benzoate] was tested, and the “TI on Resting PBMC” value (Panc1; [4]) was 4, the “TI on Resting PBMC” value (Panc1; Experiment 2) was 3 and the “TI on Stimulated PBMC” value (Panc1; Experiment 1, 0 = higher toxicity in PBMC than in the cancer cell lines) was 5. The “TI on Stimulated PBMC” value (Panc1; Experiment 2) was 3, the “Therapeutic Index = IC50 resting PBMC/IC50 cancer cell” value (Panc1; Panc1, Table IV) was 3 and the “Therapeutic Index = IC50 stimulated PBMC/IC50 cancer cell” value (Panc1; Panc1, Table VII) was 3. For the same compound, the “pancreatic tumor size increase relative to size when treatment was initiated” value ([1]; Example 5, high dose 40 mg/kg (approximately 1150 μM, 100 μL/mouse) SC daily 28 days) was “less than 5 fold”, the “in vivo antitumor activity compared with Cyproterone Acetate” value ([1]; Examples 5 and 6, FIG. 3, same animal model) was “antitumor activity higher than Cyproterone Acetate” and the “Therapeutic Index = IC50 resting PBMC/IC50 cancer cell” value (LNCaP; Table IV) was 8. The “Therapeutic Index = IC50 stimulated PBMC/IC50 cancer cell” value (LNCaP; Table VII) was 8, the “Therapeutic Index = IC50 resting PBMC/IC50 cancer cell” value (PC3; Table IV) was 3 and the “Therapeutic Index = IC50 stimulated PBMC/IC50 cancer cell” value (PC3; Table VII) was 3. For the same compound, the “Therapeutic Index = IC50 resting PBMC/IC50 cancer cell” value (HT29 [2]; Table IV) was 6, the “Therapeutic Index = IC50 stimulated PBMC/IC50 cancer cell” value (HT29 [2]; Table VII) was 6 and the IC50 (HT29 [2]; read-out: In vitro proliferation IC50, Table IV) was 10 µM. For the same compound, the “Therapeutic Index = IC50 resting PBMC/IC50 cancer cell” value (stimulated PBMC; PBMC Stim, healthy lymphocyte, Table IV) was 1, the “Therapeutic Index = IC50 stimulated PBMC/IC50 cancer cell, AVERAGE” value (stimulated PBMC; average across the 7 cancer cell lines, Table VII) was 5 and the IC50 (stimulated PBMC; read-out: IC50 on Stimulated PBMC, Example 7 Experiment 1) was 113 µM. For the same compound, the IC50 (stimulated PBMC; read-out: IC50 on Stimulated PBMC, Example 7 Experiment 2) was 97 µM, the IC50 (stimulated PBMC; read-out: In vitro proliferation IC50, PBMC STIMULATED, healthy lymphocyte, Table IV) was 97 µM and the “Therapeutic Index = IC50 resting PBMC/IC50 cancer cell” value (MCF7; Table IV) was 4. The “Therapeutic Index = IC50 stimulated PBMC/IC50 cancer cell” value (MCF7; Table VII) was 4, the IC50 (resting PBMC; Example 7 Experiment 1) was 100 µM and the IC50 (resting PBMC; Example 7 Experiment 2) was 85 µM. For the same compound, the “TI on Resting PBMC” value (MiaPaca2; [4]) was 6, the “TI on Resting PBMC” value (MiaPaca2; Experiment 2) was 4 and the “TI on Stimulated PBMC” value (MiaPaca2; [4]) was 7. For the same compound, the “TI on Stimulated PBMC” value (MiaPaca2; Experiment 2) was 5, the “Therapeutic Index = IC50 resting PBMC/IC50 cancer cell” value (MiaPaca2; MiaPaca2, Table IV) was 5 and the “Therapeutic Index = IC50 stimulated PBMC/IC50 cancer cell” value (MiaPaca2; MiaPaca2, Table VII) was 5. The “Therapeutic Index = IC50 resting PBMC/IC50 cancer cell” value (BxPC3; Table IV) was 3, the “Therapeutic Index = IC50 stimulated PBMC/IC50 cancer cell” value (BxPC3; Table VII) was 3 and the “Inhibition (%) on HT29” value (HT29 [3]; 0.8 micromolar) was −1.55%. The “Inhibition (%) on HT29” value (HT29 [3]; 4 micromolar) was 20.40%, the “Inhibition (%) on HT29” value (HT29 [3]; 20 micromolar) was 53.60% and the “Inhibition (%) on HT29” value (HT29 [3]; 100 micromolar) was 92.24%. The “Inhibition (%) on HT29” value (HT29 [3]; 500 micromolar) was 92.31%, the “Therapeutic Index (TI), Resting PBMC” value (HT29 [3]; Example 9 Experiment 1) was 6 and the “Therapeutic Index (TI), Resting PBMC” value (HT29 [3]; Example 9 Experiment 2) was 5. The “Therapeutic Index (TI), Stimulated PBMC” value (HT29 [3]; Example 9 Experiment 1) was 7 and the “Therapeutic Index (TI), Stimulated PBMC” value (HT29 [3]; Example 9 Experiment 2) was 6.
